# Data from paper PMC10922478 (Environmental research, 2023).
# Legend:
# [1] = assay type: in vivo; settings: human urine after limonene inhalation
# [2] = Stable isotope tracing in mouse urine after i.p. limonene or limonene-d5; settings: after limonene / limonene-d5 66.8 mg/kg i.p.; overnight urine
# [3] = ref Falk-Filipsson et al., 1993; cited from earlier work
SMILES,Observed Tmax ([1]; creatinine-normalized peak response),Elimination t1/2 ([1]; pseudo one-compartment model),Ka (first-order urinary generation rate constant) ([1]; pseudo one-compartment model),Ke (first-order urinary elimination rate constant) ([1]; pseudo one-compartment model),Detection in mouse urine [2],Half-life in blood (t1/2α) [3]
"C=C(C)C1CCC(C(=O)O)CC1 (stereo not drawn) [LM1, DHPA]",1 h,1.01 ± 0.40 h,0.93 ± 0.37 h⁻¹,0.68 ± 0.27 h⁻¹,absent,–
C=C(C)[C@H]1CC=C(C)CC1 [Limonene],–,–,–,–,–,~ 3 min
